Data as given in a melting point compilation (Tetko et al.; mined from patent text by program, amines drawn as free bases though some values may be those of a salt).
Starred links: 1 amine or outer side, 2 acyl side, 3 side chain; linkers in the order of their positions; H or OH if unused. Non-standard residues stand in square brackets, D forms with d. Residues, ends and D or L forms follow the SMILES beside them. *: point of attachment. γGlu = O=C(O)[CH](CCC(=O)[*:2])N[*:1]; Lauroyl = CCCCCCCCCCCC(=O)*

SMILES	melting point [°C]
CN1Cc2c(cc(CN3CCOCC3)n2C)C(c2ccccc2)C1 (configuration not stated)	96 to 97
COc1ccc(C(C#Cc2ccccc2)CC(C)=O)cc1OC1CCCC1 (racemic)	62 to 64
O=C(NCC(=O)N1c2ccccc2N(Cc2ccccc2)C(=O)[C@H]2CCC[C@H]21)c1ccc2c(c1)OCO2 (relative stereo)	174 to 176
CCOC(=S)SC(=CC(=O)c1cc(Cl)c(C)c(Cl)c1)C(=O)O	126 to 128
c1ccc(OCCSCc2nnc(-c3ccc(OCCN4CCSCC4)cc3)o2)cc1	60
BrCc1cccc(OCCCCOc2ccccc2)c1	47 to 49
CN(c1ccccc1)N1C(=O)C(Cl)=C(c2ccc(Cl)cc2)C1=O	155 to 157
N#Cc1cnc2cnc(F)cc2c1Nc1ccc(F)c(Cl)c1	108 to 111
COc1ccc(C)cc1NC(=O)Nc1ccc(N2CCN(C(=O)C3CCCCC3)CC2)cc1	222
COc1ccc(C2Sc3c(ccc4ccccc34)NC(=O)C2O)cc1 (configuration not stated)	232 to 234
O=C1c2ccccc2C(=O)N1c1cccc(S(F)(F)(F)(F)F)c1	188 to 190
CCCCCCCCCCCC(=O)NC(C)C(=O)NC(CCC(=O)NC(CCCCN)C(=O)O)C(=O)O (configuration not stated) (Lauroyl-Ala-[γGlu]-Lys-OH; configuration not given here)	180 to 186
CNC(=S)n1nc(Oc2c(Cl)cc(C(F)(F)F)cc2Cl)cc1C	121 to 123
CN(CCc1ccc(NC(=N)C(F)(F)F)cc1)Cc1ccccc1	105 to 107
O=C(c1ccc([N+](=O)[O-])cc1)N1CCc2cc(S(=O)(=O)n3cc(-c4ccccc4)[nH]c3=O)ccc21	245 to 246
O=P1(c2ccc(C(F)(F)F)cc2)c2ccccc2CN1c1ccccc1 (configuration not stated)	187 to 189
O=[N+]([O-])c1oc2c(CC(CO)CO)cccc2c1-c1ccccc1	166 to 168
COc1ccc2c(c1)C(=O)c1nc(-c3ccccc3)sc1C2=O	221
Cc1ccccc1NC(=O)Nc1ccc(-c2c(Cc3ccccc3)sc3ncnc(N)c23)cc1	245 to 248
C=C1c2cc(C(=O)O)ccc2CCC1n1ccnc1 (configuration not stated)	227 to 229
CS(=O)(=O)c1ccc(C2=C(c3ccccc3)C(=O)OC2)cc1F	161 to 162
CC(C)(COc1ccc(O)c(C(N)=O)c1)NCC(O)COc1ccccc1C#N (configuration not stated)	125 to 126
CN1CC(N2CC(=O)NC2=O)CC2c3cccc4[nH]cc(c34)CC21 (configuration not stated)	295 to 297

SMILES	melting point [°C]
COc1ccc2c(c1)COc1c-2cc(-c2cccs2)c2cc(OC)ccc12	110 to 112
COc1cc2nc(N3CCN(C(=O)C=Cc4ccc(OC)c(OC)c4OC)CC3)nc(N)c2cc1OC	263 to 264
Cc1cc(C)c2cccc(Cl)c2n1	66 to 68
C=CCCc1ccc(C(N)=O)c(O)n1	195 to 198
O=C1C=CC(c2ccccc2)C2(c3ccccc3)CN(C(=O)Cc3ccccc3)CC12 (racemic)	188
CCc1cn(C(C)C(=O)N(C)C)nc1-c1ccccc1Cl (configuration not stated)	74 to 76
COc1cc(OC)nc(Oc2cccc(Oc3nc(OC)cc(OC)n3)c2C=O)n1	129
Cn1c(=O)cc(CCc2ccc(Cl)s2)c2cc(C(N)(c3ccc(Cl)cc3)c3cccnc3)ccc21 (configuration not stated)	100
CC(C)(C)OC(=O)C(CO)NC(=O)c1coc(-c2cocn2)n1 (configuration not stated)	85 to 87
COc1ccc(C2=NN(c3cccc(C(=O)O)c3)C(=O)[C@H]3CC=CC[C@@H]23)cc1OC (relative stereo)	185 to 186
CN(C(=O)C1CCCN(c2ccc([N+](=O)[O-])c(C=C3NC(=O)NC3=O)c2)C1)C1CCCCC1 (configuration not stated)	153 to 162
CC(C)(C)OC(=O)N1CCCC(C(=O)OCC(=O)C(C)(C)C)(C(=O)OCc2ccccc2)C1 (configuration not stated)	60
CN1CCCC(c2nc3cccnc3[nH]2)C1 (configuration not stated)	141 to 144
CN(C)C(=O)Sc1ccccc1C(=O)c1ccc(C#N)cc1	102
Cc1cc(NC(=O)c2cnn(-c3ccc(Cl)cc3)c2C)ccc1N1CCC(N2CCOCC2)CC1	235 to 245
N#Cc1cnn2c(C(F)(F)F)cc(-c3ccc(F)cc3F)nc12	149
Cn1c(=O)cc(-c2cccc(Cl)c2)c2cc(Br)ccc21	182
CC(C)N(CCOC1CCCC2Oc3ccccc3OC12)C(C)C (configuration not stated)	63.4
O=C(O)c1ccc(C(c2ccc(C(=O)O)cc2)(c2ccc(C(=O)O)cc2)C(F)(F)F)cc1	366 to 367
CNc1nc(S(=O)(=O)Nc2c(Cl)cccc2Cl)n[nH]1	285 to 287
Cn1cc(C(=O)O)c(=O)c2cc3cc(F)c(N4CCNC(c5ccco5)C4)c(F)c3nc21 (racemic)	295 to 296
CC(=O)NC1C(Cl)OC(COC(C)=O)C(OC(C)=O)C1OC(C)=O (configuration not stated)	143
COc1cc(OC)cc(-c2cc(=O)c3ccc(OCC(O)CN4CCN(c5ccccc5)CC4)cc3o2)c1 (configuration not stated)	195 to 196

SMILES	melting point [°C]
O=C1C2CCCN2c2ccccc2N1Cc1ccccc1 (configuration not stated)	156 to 157
CS(=O)(=O)Nc1ccc(CCN2CCN(C(=O)c3ccc4[nH]ccc4c3)CC2)cc1	94 to 97
Cc1cc(-c2cc(C(F)(F)F)n3ncc(C(=O)Nc4cccc(S(=O)(=O)NC(C)(C)CO)c4)c3n2)ccc1C(F)(F)F	230
Clc1cc(NCCc2c[nH]cn2)ccn1	164 to 165
CN(c1ccc(-c2ccc(C(=N)N)cc2)nn1)[C@H]1CC[C@H](C(=O)O)CC1	308 to 310
CCC(=O)Nc1ncc(Sc2ccc(N)cc2)s1	185 to 187
CCCc1ccc2c(c1)C(=O)N(c1ccc(C(C)C(=O)O)cc1)C2 (configuration not stated)	175 to 177
Nc1c(C(F)(F)F)cc2[nH]c(=O)c(=O)[nH]c2c1Cl	> 360
CCc1nc2c(N)nc3ccccc3c2n1CC1(O)CCSCC1	> 250
COc1c(C=O)c(C)cc2c1C(C)(C)CCC2(C)C	78
CC(C)(Cn1cnc2c(N)nc3ccccc3c21)OCCS(C)(=O)=O	261 to 264
Cc1c(C(F)(F)F)cnn(-c2ncc(Cl)cc2F)c1=O	91 to 93
CCC1OC(=O)C(C)C(OC2CC(C)(OC)C(O)C(C)O2)C(C)C(OC2OC(C)CC(N(C)C)C2O)C(C)(OC)CC(C)C(=O)C(C)C(O)C1(C)O (configuration not stated)	100
CCOC(=O)c1cc(Cl)c(-n2nc(CC)c(C(N)=O)c2N)c(Cl)c1	194 to 196
OCc1c(F)cccc1NC1CCN(Cc2ccccc2)CC1	167 to 170
O=C(O)c1ccc(S(=O)(=O)Oc2ccc(-c3ccc(-c4c(C(=O)c5ccccc5)oc5ccccc45)cc3)cc2C2CCCC2)cc1O	105 to 108
O=C(CCC(=O)N1CCC(c2ccc(Cl)cc2)CC1)c1ccc2c(c1)CCN(CCn1cccc1)CC2	96 to 97
OC[C@@H](O)[C@@H](O)[C@H](O)[C@@H](O)CNC1CCCCC1	144 to 146
CNC(=O)C1=CC(CF)(CF)Oc2ccc(Br)cc21	187 to 188
CCCCOc1cc2ncnc(Nc3cccc(CC)c3)c2cc1OCCOC	90 to 92
Cn1cc2c(C(F)(F)F)cc(Cl)nc2n1	124
